From US20230117470A1, “SUBSTITUTED PYRAZOLE COMPOUNDS AS TOLL RECEPTOR INHIBITORS” (BRISTOL-MYERS SQUIBB COMPANY, priority 2019, published 2023) come the findings set out here.

Structures are written as SMILES. Bounds are passed on as bounds.

Holding throughout (assay type): cell-based
The target in test [1] is T1, human TLR7 (Homo sapiens, UniProt Q9NYK1).
T1 construct: host or cells: HEK-Blue cells
T1 sequence (Q9NYK1 27-1049): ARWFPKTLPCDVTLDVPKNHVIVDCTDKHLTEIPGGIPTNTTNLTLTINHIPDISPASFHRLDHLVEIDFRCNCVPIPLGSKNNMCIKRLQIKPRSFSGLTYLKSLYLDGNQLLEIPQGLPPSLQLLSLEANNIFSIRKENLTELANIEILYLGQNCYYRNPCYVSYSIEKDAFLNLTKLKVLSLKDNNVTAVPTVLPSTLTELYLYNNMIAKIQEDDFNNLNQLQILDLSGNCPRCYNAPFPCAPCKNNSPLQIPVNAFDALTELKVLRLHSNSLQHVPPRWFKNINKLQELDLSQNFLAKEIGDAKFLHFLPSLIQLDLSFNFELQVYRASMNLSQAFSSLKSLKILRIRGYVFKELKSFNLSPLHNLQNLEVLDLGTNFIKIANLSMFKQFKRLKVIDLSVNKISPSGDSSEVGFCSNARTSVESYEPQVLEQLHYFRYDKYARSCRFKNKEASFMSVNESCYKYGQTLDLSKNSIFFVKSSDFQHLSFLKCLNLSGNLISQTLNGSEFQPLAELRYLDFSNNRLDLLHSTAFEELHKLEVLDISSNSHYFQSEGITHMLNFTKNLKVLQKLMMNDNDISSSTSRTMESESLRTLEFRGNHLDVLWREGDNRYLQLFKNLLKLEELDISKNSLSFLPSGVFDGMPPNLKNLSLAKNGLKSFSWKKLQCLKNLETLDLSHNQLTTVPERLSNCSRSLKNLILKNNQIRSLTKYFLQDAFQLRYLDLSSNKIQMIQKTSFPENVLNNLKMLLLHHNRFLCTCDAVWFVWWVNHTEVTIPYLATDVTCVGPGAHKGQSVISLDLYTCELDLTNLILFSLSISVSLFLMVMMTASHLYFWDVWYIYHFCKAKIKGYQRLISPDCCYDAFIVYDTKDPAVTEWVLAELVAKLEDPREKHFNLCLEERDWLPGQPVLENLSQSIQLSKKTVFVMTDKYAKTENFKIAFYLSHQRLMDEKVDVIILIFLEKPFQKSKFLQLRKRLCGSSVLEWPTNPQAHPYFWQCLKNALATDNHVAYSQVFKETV
The test is described as follows: TLR7 inhibition reporter assay (HEK-Blue cells, SEAP reporter, gardiquimod stimulation). The settings on record: HEK-Blue cells overexpressing human TLR7, SEAP reporter, gardiquimod 7.5 μM. The essentials: (§1)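 Ligand levels differed by receptor: TLR7 got gardiquimod at 7.5 μM, TLR8 got R848 at 15.9 μM, and TLR9 got ODN2006 at 5 nM, each added after a 30-min room-temperature compound exposure. Incubation lasted 22 h at 37° C before colorimetric SEAP detection.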
In general terms: A reporter such as luciferase makes a cellular process visible.

For test [2], the target named is T2, human TLR8 (Homo sapiens, UniProt Q9NR97).
T2 construct: host or cells: HEK-Blue cells
T2 sequence (Q9NR97 27-1041): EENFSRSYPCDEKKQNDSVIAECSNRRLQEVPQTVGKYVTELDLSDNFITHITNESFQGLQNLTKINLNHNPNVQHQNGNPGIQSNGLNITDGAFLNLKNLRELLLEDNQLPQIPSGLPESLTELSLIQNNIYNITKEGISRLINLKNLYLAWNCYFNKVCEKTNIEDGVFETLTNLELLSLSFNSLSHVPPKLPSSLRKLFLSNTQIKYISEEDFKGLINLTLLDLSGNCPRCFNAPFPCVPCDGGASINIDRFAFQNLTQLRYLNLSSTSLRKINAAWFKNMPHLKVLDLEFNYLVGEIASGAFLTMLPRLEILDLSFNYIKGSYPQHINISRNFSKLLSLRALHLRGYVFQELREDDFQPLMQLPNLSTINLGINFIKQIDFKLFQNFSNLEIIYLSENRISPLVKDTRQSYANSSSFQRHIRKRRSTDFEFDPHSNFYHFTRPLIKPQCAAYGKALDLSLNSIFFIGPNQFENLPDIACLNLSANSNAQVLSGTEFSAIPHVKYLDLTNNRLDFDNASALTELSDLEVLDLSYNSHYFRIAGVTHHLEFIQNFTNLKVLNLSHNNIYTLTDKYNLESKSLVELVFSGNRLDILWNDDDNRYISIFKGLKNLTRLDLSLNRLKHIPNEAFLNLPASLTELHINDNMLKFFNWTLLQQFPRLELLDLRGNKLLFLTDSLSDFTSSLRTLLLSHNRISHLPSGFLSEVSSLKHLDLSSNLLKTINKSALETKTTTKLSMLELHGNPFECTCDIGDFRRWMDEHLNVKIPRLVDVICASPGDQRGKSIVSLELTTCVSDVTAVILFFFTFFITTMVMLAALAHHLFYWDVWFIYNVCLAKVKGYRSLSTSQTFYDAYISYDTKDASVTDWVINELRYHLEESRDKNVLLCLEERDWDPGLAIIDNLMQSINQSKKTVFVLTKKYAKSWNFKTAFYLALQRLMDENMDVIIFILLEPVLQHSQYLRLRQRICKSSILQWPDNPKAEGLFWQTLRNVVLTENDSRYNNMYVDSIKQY
The experiment in a line: TLR8 inhibition reporter assay (HEK-Blue cells, SEAP reporter, R848 stimulation). Particulars: HEK-Blue cells overexpressing human TLR8, SEAP reporter, R848 15.9 μM. The essentials:
as §1

In test [3] the target is T3, human TLR9 (Homo sapiens, UniProt Q9NR96).
T3 construct: host or cells: HEK-Blue cells
T3 sequence (Q9NR96 26-1032): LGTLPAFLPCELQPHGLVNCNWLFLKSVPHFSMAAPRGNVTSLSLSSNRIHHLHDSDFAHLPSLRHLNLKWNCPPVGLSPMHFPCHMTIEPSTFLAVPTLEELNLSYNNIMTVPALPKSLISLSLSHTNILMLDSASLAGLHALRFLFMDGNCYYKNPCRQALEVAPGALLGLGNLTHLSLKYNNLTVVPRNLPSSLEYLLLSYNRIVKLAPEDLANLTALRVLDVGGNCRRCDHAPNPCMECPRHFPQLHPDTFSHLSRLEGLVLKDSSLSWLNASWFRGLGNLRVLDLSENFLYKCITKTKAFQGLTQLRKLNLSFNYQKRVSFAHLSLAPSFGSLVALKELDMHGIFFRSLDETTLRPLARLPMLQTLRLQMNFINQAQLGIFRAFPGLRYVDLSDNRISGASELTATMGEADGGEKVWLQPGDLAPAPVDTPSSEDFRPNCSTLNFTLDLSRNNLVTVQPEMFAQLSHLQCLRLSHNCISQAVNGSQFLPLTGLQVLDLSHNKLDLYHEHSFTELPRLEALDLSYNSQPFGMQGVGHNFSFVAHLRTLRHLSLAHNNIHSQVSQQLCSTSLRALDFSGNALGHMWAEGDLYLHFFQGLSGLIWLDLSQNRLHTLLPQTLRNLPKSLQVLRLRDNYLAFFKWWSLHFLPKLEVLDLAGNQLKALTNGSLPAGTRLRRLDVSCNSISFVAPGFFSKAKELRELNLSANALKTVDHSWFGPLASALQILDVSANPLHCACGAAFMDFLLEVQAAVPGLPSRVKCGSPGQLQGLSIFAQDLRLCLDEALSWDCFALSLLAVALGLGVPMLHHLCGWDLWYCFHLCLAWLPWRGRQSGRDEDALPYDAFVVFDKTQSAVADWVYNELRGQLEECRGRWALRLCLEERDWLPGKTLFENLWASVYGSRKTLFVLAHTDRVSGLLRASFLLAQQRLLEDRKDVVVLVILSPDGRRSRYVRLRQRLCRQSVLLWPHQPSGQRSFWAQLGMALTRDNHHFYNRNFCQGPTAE
The experiment in a line: TLR9 inhibition reporter assay (HEK-Blue cells, SEAP reporter, ODN2006 stimulation). The settings on record: HEK-Blue cells overexpressing human TLR9, SEAP reporter, ODN2006 5 nM. The method, boiled down: as §1

Turning to `Cc1cc(-c2[nH]nc(C3CCN(C)CC3)c2C(C)C)cn2ncnc12` [Example 206, 6-(4-isopropyl-3-(1-methylpiperidin-4-yl)-1H-pyrazol-5-yl)-8-methyl-[1,2,4]triazolo[1,5-a]pyridine], the IC50 amounted to 2.27 nM in test [1], 0.64 nM in test [2] and 12600 nM in test [3].

With `Cc1cc(-c2[nH]nc(C(=O)N[C@H]3CC[C@H](NCC4CCOCC4)CC3)c2C(C)C)cn2ncnc12` [Example 111], the results for the IC50 in test [1], in test [2] and in test [3] were 2.97 nM, 33.7 nM and 3930 nM, respectively.

In the case of `Cc1cc(-c2[nH]nc(C(=O)N[C@H]3CCCN(C(C)C)C3)c2C(C)C)cn2ncnc12` [Example 163], the IC50 came to 1.59 nM in test [1], 20.6 nM in test [2] and 9400 nM in test [3].

Consider `CCN1CC(C(=O)N(C)C2CCC(c3n[nH]c(-c4cc(C)c5ncnn5c4)c3C(C)C)CC2)C1` (single isomer, unassigned) [Example 305], for which the IC50 is 311 nM in test [1], 70 nM in test [2] and greater than 50000 nM in test [3].

Consider `CNC(=O)c1n[nH]c(-c2cc(C)c3ncnn3c2)c1C(C)C` [Example 27], for which the IC50 came to 29.7 nM in test [1], 2.87 nM in test [2] and 388 nM in test [3].

With `Cc1cc(-c2[nH]nc(CN(C)C)c2C(C)C)cn2ncnc12` [Example 184, 1-(4-isopropyl-5-(8-methyl-[1,2,4]triazolo[1,5-a]pyridin-6-yl)-1H-pyrazol-3-yl)-N,N-dimethylmethanamine], the figures for the IC50 in test [1], in test [2] and in test [3] were 1.01 nM, 0.84 nM and 11400 nM, respectively.

As for `Cc1cc(-c2[nH]nc(-c3cccc(N(C)C)c3)c2C(C)C)cn2ncnc12` [Example 245], the values for the concentration for half-maximal inhibition (IC50) in test [1], in test [2] and in test [3] were 2.6 nM, 0.65 nM and 22900 nM, respectively.

Take `Cc1cc(-c2[nH]nc(-c3cncc(NC(C)C)c3)c2C(C)C)cn2ncnc12` [Example 239]: the IC50 in test [1] was found to be 1.96 nM; in test [2], 0.27 nM; in test [3], 9920 nM.

Consider `CCN1CCC(c2ccc(-c3n[nH]c(-c4cc(OC)c5ncnn5c4)c3C(C)C)nc2)CC1` [Example 347, 6-(3-(5-(1-ethylpiperidin-4-yl)pyridin-2-yl)-4-isopropyl-1H-pyrazol-5-yl)-8-methoxy-[1,2,4]triazolo[1,5-a]pyridine], for which the IC50 is 22.9 nM in test [1], 44.5 nM in test [2] and greater than 50000 nM in test [3].

As for `Cc1cc(-c2[nH]nc(C(=O)NCC3CCNCC3)c2C(C)C)cn2ncnc12` [Example 45], the IC50 in test [1] stood at 1.84 nM; in test [2], 19.5 nM; in test [3] it was 45400 nM.

In the case of `Cc1cc(-c2[nH]nc(C(=O)N3CC[C@@H](N(C)C)C3)c2C(C)C)cn2ncnc12` [Example 18], the results for the IC50 in test [1], in test [2] and in test [3] were 5.69 nM, 2.57 nM and 3740 nM, respectively.

On to `Cc1cc(-c2[nH]nc(C(=O)N[C@H]3CC[C@@H](NCC4(C)COC4)CC3)c2C(C)C)cn2ncnc12` [Example 151], for which the IC50 was determined as 49.2 nM in test [1], 60 nM in test [2] and 23400 nM in test [3].

For the compound `Cc1cc(-c2[nH]nc(-c3ncc(C4CCN(CC(C)(C)C)CC4)cn3)c2C(C)C)cn2ncnc12` [Example 371], the IC50 in test [1] was 72.1 nM; in test [2] it was 29.4 nM; in test [3] it was greater than 50000 nM.

For `CCN1CCC(c2ccc(-c3n[nH]c(-c4cc(C)c5ncnn5c4)c3C(C)C)nc2)CC1` [Example 366], the IC50 in test [1] is greater than 3130 nM; in test [2], greater than 3130 nM; in test [3] it was 6260 nM.

Consider `Cc1cc(-c2[nH]nc(-c3ccc(C4CN(C(=O)CN(C)C)C4)cc3)c2C(C)C)cn2ncnc12` [Example 334, 2-(dimethylamino)-1-(3-(4-(4-isopropyl-5-(8-methyl-[1,2,4]triazolo[1,5-a]pyridin-6-yl)-1H-pyrazol-3-yl)phenyl)azetidin-1-yl)ethan-1-one], for which the IC50 in test [1] turned out to be 13.6 nM; in test [2], 3.19 nM; in test [3] it was 4830 nM.

For orientation: IC50 means the concentration that inhibits the measured activity by half. Lower therefore signals inhibition by little substance.
